Experimental data: ChEMBL document CHEMBL5120857, “Rational design, synthesis and biological evaluation of dual PARP-1/2 and TNKS1/2 inhibitors for cancer therapy” (Eur J Med Chem, 2022)
Activity calls are given as the source filed them. The calls are words filed in the database; no cut-off is given here.

Tests used:
[1] = molecular target: T1, Poly [ADP-ribose] polymerase 1 (Homo sapiens, UniProt P09874); settings: dose 10.0 nM, time 45.0 min
[2] = molecular target: T2, Poly [ADP-ribose] polymerase tankyrase-2 (Homo sapiens) (UniProt Q9H2K2); settings: dose 10.0 nM, time 1.0 hrs
T2 sequence (whole entry): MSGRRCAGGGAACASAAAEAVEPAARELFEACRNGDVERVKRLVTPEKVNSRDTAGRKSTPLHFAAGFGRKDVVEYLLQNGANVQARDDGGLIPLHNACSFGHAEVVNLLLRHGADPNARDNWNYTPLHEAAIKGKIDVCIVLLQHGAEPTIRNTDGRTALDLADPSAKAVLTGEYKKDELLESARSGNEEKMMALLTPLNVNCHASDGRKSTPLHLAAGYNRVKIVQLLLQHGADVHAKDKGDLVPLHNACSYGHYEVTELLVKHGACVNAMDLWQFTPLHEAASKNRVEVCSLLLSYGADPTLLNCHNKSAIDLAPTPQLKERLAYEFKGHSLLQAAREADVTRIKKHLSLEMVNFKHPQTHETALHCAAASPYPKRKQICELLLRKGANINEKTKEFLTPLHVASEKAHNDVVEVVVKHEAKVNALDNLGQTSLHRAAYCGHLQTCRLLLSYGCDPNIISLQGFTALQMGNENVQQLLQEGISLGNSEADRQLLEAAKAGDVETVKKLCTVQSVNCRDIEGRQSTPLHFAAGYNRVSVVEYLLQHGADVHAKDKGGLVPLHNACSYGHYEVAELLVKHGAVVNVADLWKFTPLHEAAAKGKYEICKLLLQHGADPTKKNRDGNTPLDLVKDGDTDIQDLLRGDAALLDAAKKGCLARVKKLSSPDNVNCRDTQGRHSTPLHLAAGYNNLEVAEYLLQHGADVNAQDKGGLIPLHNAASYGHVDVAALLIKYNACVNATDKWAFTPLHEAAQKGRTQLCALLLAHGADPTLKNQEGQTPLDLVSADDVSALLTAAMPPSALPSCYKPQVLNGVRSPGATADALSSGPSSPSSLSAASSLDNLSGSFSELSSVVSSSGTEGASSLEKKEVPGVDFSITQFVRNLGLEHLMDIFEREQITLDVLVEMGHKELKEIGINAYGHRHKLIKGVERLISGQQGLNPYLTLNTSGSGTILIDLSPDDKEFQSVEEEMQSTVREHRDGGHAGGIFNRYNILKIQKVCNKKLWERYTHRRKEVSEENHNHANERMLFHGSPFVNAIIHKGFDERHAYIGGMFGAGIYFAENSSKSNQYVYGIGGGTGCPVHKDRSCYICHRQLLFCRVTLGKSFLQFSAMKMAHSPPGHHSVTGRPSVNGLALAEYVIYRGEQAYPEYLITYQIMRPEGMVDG

[3] = molecular target: T1, Poly [ADP-ribose] polymerase 1; assay: Inhibition of PARP-1 (unknown origin) using biotinylated NAD+ as substrate incubated for 45 mins in the presence of deoxy-oligonucleotide by microplate reader method relative to control
[4] = molecular target: T3, Poly [ADP-ribose] polymerase tankyrase-1 (Homo sapiens, UniProt O95271); assay: Inhibition of TNKS1 (unknown origin) using biotin-NAD+ as substrate incubated for 1 hr in the presence of deoxy-oligonucleotide by ELISA analysis relative to control
T3 sequence (O95271 whole entry): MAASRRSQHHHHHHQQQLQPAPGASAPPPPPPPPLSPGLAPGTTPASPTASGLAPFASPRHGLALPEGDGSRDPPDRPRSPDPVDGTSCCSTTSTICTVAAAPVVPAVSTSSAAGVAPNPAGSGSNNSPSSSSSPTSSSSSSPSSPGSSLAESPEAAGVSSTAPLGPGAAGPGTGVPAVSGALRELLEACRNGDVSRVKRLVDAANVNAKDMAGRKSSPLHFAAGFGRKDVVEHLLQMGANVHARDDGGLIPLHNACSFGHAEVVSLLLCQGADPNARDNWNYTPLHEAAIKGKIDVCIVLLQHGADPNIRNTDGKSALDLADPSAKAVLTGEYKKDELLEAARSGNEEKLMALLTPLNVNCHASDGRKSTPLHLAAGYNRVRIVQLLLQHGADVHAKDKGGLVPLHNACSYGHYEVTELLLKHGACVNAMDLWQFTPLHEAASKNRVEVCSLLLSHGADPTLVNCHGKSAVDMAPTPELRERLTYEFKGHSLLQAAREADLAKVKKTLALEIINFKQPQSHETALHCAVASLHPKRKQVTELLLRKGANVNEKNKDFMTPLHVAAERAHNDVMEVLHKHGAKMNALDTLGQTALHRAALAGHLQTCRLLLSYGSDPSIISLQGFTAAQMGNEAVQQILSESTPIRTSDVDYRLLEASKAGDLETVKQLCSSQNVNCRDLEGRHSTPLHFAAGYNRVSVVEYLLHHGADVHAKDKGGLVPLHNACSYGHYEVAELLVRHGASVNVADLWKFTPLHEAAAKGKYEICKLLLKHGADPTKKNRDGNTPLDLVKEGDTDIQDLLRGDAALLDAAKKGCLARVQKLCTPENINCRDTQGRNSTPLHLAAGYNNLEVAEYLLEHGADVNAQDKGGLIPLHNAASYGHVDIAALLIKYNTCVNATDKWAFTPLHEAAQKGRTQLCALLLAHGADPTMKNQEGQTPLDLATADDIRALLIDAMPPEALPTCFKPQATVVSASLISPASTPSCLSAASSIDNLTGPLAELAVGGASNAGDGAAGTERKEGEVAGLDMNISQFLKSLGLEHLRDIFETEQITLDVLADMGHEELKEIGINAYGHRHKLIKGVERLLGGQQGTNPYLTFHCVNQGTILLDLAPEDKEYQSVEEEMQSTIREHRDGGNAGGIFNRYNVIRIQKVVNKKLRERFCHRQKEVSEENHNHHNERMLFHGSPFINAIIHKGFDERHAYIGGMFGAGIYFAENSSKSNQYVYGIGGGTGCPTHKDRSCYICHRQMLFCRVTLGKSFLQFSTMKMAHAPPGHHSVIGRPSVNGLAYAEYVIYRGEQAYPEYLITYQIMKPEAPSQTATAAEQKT

[5] = molecular target: T4, Poly [ADP-ribose] polymerase tankyrase-2 (Homo sapiens, UniProt Q9H2K2); assay: Inhibition of TNKS2 (unknown origin) using biotin-NAD+ as substrate incubated for 1 hr in the presence of deoxy-oligonucleotide by ELISA analysis relative to control
T4 sequence (Q9H2K2 whole entry): T2 sequence (whole entry)

[6] = molecular target: T5, Poly [ADP-ribose] polymerase tankyrase-1 (Homo sapiens) (UniProt O95271); settings: dose 10.0 nM, time 1.0 hrs
T5 sequence (whole entry): T3 sequence (O95271 whole entry)

MDA-MB-231 = assay: Antiproliferative activity against human MDA-MB-231 cells assessed as inhibition of cell growth incubated for 7 days by MTT assay; format: functional, cell-based; settings: MDA-MB-231, 168 h
HCT-116 [7] = assay: Antiproliferative activity against human HCT-116 cells assessed as inhibition of cell growth incubated for 7 days by MTT assay; format: functional, cell-based; settings: HCT-116, 168 h
MDA-MB-468 = assay: Antiproliferative activity against human MDA-MB-468 cells assessed as inhibition of cell growth incubated for 7 days by MTT assay; format: functional, cell-based; settings: MDA-MB-468, 168 h
[8] = Cytotoxicity against mouse AML12 cells assessed as reduction in cell viability incubated for 7 days by MTT assay; format: toxicity, cell-based; settings: time 7 day
HCT-116 [9] = assay: Inhibition of Wnt/beta-Catenin signaling in human HCT-116 cells assessed as increase in axin2 levels at 10 uM by Western blot analysis; format: cell-based
HCT-116 [10] = assay: Inhibition of Wnt/beta-Catenin signaling in human HCT-116 cells assessed as decrease in cyclin D1 levels at 10 uM by Western blot analysis; format: cell-based
HCT-116 [11] = assay: Inhibition of PARP in human HCT-116 cells assessed as decrease in pADPr levels at 10 uM by Western blot analysis; format: cell-based
HCT-116 [12] = assay: Induction of apoptosis in human HCT-116 cells assessed as viable cells at 5 uM incubated for 3 days by annexinV-FITC/propidium iodide staining based flow cytometry (reference value: 60.0 %); format: functional; settings: time 3 day
HCT-116 [13] = assay: Induction of apoptosis in human HCT-116 cells assessed as early apoptotic cells at 5 uM incubated for 3 days by annexinV-FITC/propidium iodide staining based flow cytometry (reference value: 7.67 %); format: functional; settings: time 3 day
HCT-116 [14] = assay: Induction of apoptosis in human HCT-116 cells assessed as late apoptotic cells at 5 uM incubated for 3 days by annexinV-FITC/propidium iodide staining based flow cytometry (reference value: 8.71 %); format: functional; settings: time 3 day
HCT-116 [15] = assay: Induction of apoptosis in human HCT-116 cells assessed as necrotic cells at 5 uM incubated for 3 days by annexinV-FITC/propidium iodide staining based flow cytometry (reference value: 3.65 %); format: functional; settings: time 3 day
HCT-116 [16] = assay: Induction of cell cycle arrest in human HCT-116 cells assessed as G0/G1 phase cells at 5 uM incubated for 3 days by propidium iodide staining based flow cytometry (reference value: 68.35 %); format: functional; settings: time 3 day
HCT-116 [17] = assay: Induction of cell cycle arrest in human HCT-116 cells assessed as S phase cells at 5 uM incubated for 3 days by propidium iodide staining based flow cytometry (reference value: 11.26 %); format: functional; settings: time 3 day
HCT-116 [18] = assay: Induction of cell cycle arrest in human HCT-116 cells assessed as G2/M phase cells at 5 uM incubated for 3 days by propidium iodide staining based flow cytometry (reference value: 68.35 %); format: functional; settings: time 3 day
HCT-116 [19] = assay: Antitumor activity against human HCT-116 cells xenografted in BALB/c nude mouse assessed as tumor growth inhibition at 50 mg/kg, ip administered once daily for 28 days; format: functional; settings: time 28 day

T1 sequence (P09874 whole entry): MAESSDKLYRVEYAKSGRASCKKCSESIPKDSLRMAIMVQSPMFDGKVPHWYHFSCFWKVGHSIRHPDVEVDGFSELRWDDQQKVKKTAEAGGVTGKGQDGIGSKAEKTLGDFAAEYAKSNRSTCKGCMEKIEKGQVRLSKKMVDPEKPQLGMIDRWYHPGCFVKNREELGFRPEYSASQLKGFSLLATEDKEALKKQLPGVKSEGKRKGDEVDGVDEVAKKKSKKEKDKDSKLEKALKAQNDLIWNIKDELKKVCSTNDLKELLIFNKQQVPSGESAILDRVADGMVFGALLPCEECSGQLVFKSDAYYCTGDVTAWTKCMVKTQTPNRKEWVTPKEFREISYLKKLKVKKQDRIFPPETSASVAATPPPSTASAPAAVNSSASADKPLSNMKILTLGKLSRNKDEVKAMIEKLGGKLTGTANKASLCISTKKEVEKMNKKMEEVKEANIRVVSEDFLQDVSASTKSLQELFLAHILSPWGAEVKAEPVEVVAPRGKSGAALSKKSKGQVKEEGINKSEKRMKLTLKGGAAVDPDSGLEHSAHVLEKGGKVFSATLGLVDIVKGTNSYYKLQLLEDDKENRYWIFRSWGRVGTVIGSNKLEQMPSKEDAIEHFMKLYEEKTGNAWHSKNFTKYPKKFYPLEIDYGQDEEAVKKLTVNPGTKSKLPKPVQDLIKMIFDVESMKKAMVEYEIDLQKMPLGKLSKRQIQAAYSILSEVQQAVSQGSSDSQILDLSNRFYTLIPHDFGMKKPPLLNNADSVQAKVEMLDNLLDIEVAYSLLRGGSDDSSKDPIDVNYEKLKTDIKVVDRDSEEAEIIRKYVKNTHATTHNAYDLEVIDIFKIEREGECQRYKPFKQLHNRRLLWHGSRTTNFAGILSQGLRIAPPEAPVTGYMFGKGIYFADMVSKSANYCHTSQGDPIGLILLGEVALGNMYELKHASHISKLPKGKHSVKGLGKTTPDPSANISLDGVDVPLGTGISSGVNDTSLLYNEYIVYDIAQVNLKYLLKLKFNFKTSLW

Row | SMILES | inhibition [1] [%] | inhibition [2] [%] | IC50 [3] [nM] | IC50 [4] [nM] | IC50 [5] [nM] | inhibition [6] [%] | IC50 (MDA-MB-231) [nM] | IC50 (HCT-116 [7]) [nM] | IC50 (MDA-MB-468) [nM] | CC50 at 168 h [8] [nM] | other results
1 | O=C(Nc1cccc(F)c1)c1ccc(NC(=O)N2CCN(C(=O)c3cc(Cc4n[nH]c(=O)c5ccccc45)ccc3F)CC2)cc1 | 98 | 26 |  |  |  |  |  |  |  |  | 
2 | O=C(Nc1ccc(C(F)(F)F)cc1)c1ccc(NC(=O)N2CCN(C(=O)c3cc(Cc4n[nH]c(=O)c5ccccc45)ccc3F)CC2)cc1 | 98 | 28 | 4.08 | 551 | 367 | 12.5 |  |  |  |  | 
3 | COc1ccc(NC(=O)c2ccc(NC(=O)C3CCN(C(=O)c4cc(Cc5n[nH]c(=O)c6ccccc56)ccc4F)CC3)cc2)cc1 | 97 | 11.5 |  |  |  |  |  |  |  |  | 
4 | Cc1ccc(NC(=O)c2ccc(NC(=O)N3CCN(C(=O)c4cc(Cc5n[nH]c(=O)c6ccccc56)ccc4F)CC3)cc2)cc1 | 99 | 48 | 0.49 | 39 | 14 | 13 | 680 | 700 | 40 | 49200 | 
5 | Cc1ccccc1NC(=O)c1ccc(NC(=O)N2CCN(C(=O)c3cc(Cc4n[nH]c(=O)c5ccccc45)ccc3F)CC2)cc1 | 99 | 40 | 1.62 | 130 | 110 | 20 | 1290 | 1040 | 70 | 86700 | 
6 | O=c1[nH]nc2c3c(cccc13)N=C(CN1Cc3ccccc3C1)N2 [2X-121] |  |  |  |  |  |  | 2890 | 6710 | 4170 | 1390 | inhibition (HCT-116 [9]): Active; inhibition (HCT-116 [10]): Active; inhibition (HCT-116 [11]): Active; viability at 5 µM (HCT-116 [12]; Homo sapiens, HCT-116, 72 h, read-out: Activity): 74.8%; Activity (HCT-116 [13]): 6.11%; Activity (HCT-116 [14]): 12.6%; Activity (HCT-116 [15]): 6.45%; Activity (HCT-116 [16]): 64.78%; Activity (HCT-116 [17]): 11.73%; Activity (HCT-116 [18]): 23.49%; inhibition in vivo at 50 mg/kg (HCT-116 [19]; Mus musculus, HCT-116, 672 h, read-out: TGI): 20.2%
7 | O=C(Nc1ccccc1F)c1ccc(NC(=O)N2CCN(C(=O)c3cc(Cc4n[nH]c(=O)c5ccccc45)ccc3F)CC2)cc1 | 99 | 36 | 0.98 | 506 | 296 | 10.5 |  |  |  |  | 
8 | Cc1cccc(NC(=O)c2ccc(NC(=O)N3CCN(C(=O)c4cc(Cc5n[nH]c(=O)c6ccccc56)ccc4F)CC3)cc2)c1 | 99 | 29.5 |  |  |  |  |  |  |  |  | 
9 | Oc1nc(-c2ccc(C(F)(F)F)cc2)nc2c1CSCC2 |  |  |  |  |  | 86 |  |  |  |  | inhibition (HCT-116 [9]): Active; inhibition (HCT-116 [10]): Active; inhibition (HCT-116 [11]): Active
10 | O=C(Nc1cccc2cccnc12)c1ccc(NC(=O)N2CCN(C(=O)c3cc(Cc4n[nH]c(=O)c5ccccc45)ccc3F)CC2)cc1 | 96 | 28 |  |  |  |  |  |  |  |  | 
11 | O=C(c1cc(Cc2n[nH]c(=O)c3ccccc23)ccc1F)N1CCN(C(=O)C2CC2)CC1 [OLAPARIB] |  |  |  |  |  |  | 5350 | 5560 | 2520 | 31100 | inhibition (HCT-116 [11]): Active; Activity (HCT-116 [12]): 68.8%; Activity (HCT-116 [13]): 12.9%; Activity (HCT-116 [14]): 14.3%; Activity (HCT-116 [15]): 4.03%; Activity (HCT-116 [16]): 58.46%; Activity (HCT-116 [17]): 7.31%; Activity (HCT-116 [18]): 34.23%; TGI (HCT-116 [19]): 15.36%
12 | COc1ccc(NC(=O)C2CCN(CC(=O)N3CCN(C(=O)c4cc(Cc5n[nH]c(=O)c6ccccc56)ccc4F)CC3)CC2)cc1 | 98 |  |  |  |  |  |  |  |  |  | 
13 | O=C(Nc1ccc(F)cc1)c1ccc(NC(=O)N2CCN(C(=O)c3cc(Cc4n[nH]c(=O)c5ccccc45)ccc3F)CC2)cc1 | 89 | 38 | 1.54 | 214 | 171 | 14 | 960 | 510 | 110 | 37400 | 
14 | COc1ccc(NC(=O)c2ccc(NC(=O)N3CCN(C(=O)c4cc5cccc(C(N)=O)c5o4)CC3)cc2)cc1 | 51.5 | 22.5 |  |  |  | 22.5 |  |  |  |  | 
